# Data taken from patent US20070014833A1, “Treatment of eye disorders with sirtuin modulators” (priority 2005, published 2007).
# Key:
# [1] = system: retinal ganglion cells (RGCs); experiment: Retinal ganglion cell (RGC) counts in EAE mice with acute optic neuritis, intravitreal treatment; settings: for RGC loss: EAE eyes with optic neuritis
# Experimental: Study outline: The neuroprotective effects of nicotinamide riboside were examined in EAE mice with optic neuritis. […] To induce EAE, mice were immunized several days later with 300 μg PLP emulsified in complete Freund's adjuvant (CFA), and control mice (without EAE) were mock-immunized with phosphate buffered saline (PBS) in CFA. All mice received 200 ng intraperitoneal pertussis toxin (PT) on the day of immunization (day 0) and again on day 2.
# Eyes were treated with nicotinamide riboside by intravitreal (ivt) injections with a volume of 0.8 μl/injection of a stock solution of either 0.1 M or 0.4 M nicotinamide riboside in PBS (Groups 2, 4 and 5). […] Treament with nicotinamide riboside, as well as PBS control injections, were given ivt on days 0, 4, 7 and 11. Mice were scored daily for clinical EAE, and were sacrificed on day 14 by overdose with ketamine and xylazine.
# Retinas were dissected and whole-mounted for fluorescent microscopy. RGC numbers were quantified by counting FG-labeled cells in 12 standardized fields in each retina. Optic nerves were dissected and processed for histology. Cut sections stained by H & E were evaluated for the presence of inflammatory cells to determine acute optic neuritis. RGCs were compared between PBS-treated and nicotinamide riboside-treated eyes with optic neuritis to determine whether nicotinamide riboside prevents loss of neurons.
# [2] = system: optic neuritis / EAE; experiment: Incidence of optic neuritis (optic nerve histology, H & E) and clinical EAE score in PLP-immunized mice; type: in vivo, SJL/J mice
smiles,measurement,setting,value
NC(=O)c1ccc[n+]([C@@H]2O[C@H](CO)[C@@H](O)[C@H]2O)c1 [nicotinamide riboside],Preserving RGCs in an acute optic neuritis model (FIG. 19),[1],effective
same,RGC loss,[1]; 100 mM treatment (Group 4) vs PBS-treated (Group 3),reduced
same,RGC loss,[1]; 400 mM treatment (Group 5) vs PBS-treated (Group 3),completely blocked
same,Neuroprotection of RGCs during acute optic neuritis in EAE,[1]; dose-dependent manner,neuroprotective
same,Toxicity to RGCs,"[1]; mouse, in vivo",not toxic
same,"RGC numbers, non-EAE eyes treated vs control eyes","[1]; non-EAE eyes, Group 2 vs Group 1",no difference
same,Inflammatory cell infiltration,[2]; optic nerve,does not prevent
same,Clinical EAE,[2]; treated mice vs controls,did not differ
same,Incidence of optic neuritis,[2]; treated mice vs controls,did not differ
